Test results: ChEMBL document CHEMBL1133433, “Synthesis of a novel class of cdc25A inhibitors from vitamin D3” (Bioorg Med Chem Lett, 2000)

Tests used:
SBC-5 = experiment: Inhibitory concentration required for antitumor activity against SBC-5 cells; type: functional, cell-based; conditions: Homo sapiens
[1] = molecular target: T1, M-phase inducer phosphatase 1 (Homo sapiens, UniProt P30304); experiment: Concentration required for the inhibitory activity against human Cell division cycle 25A
T1 sequence (P30304 whole entry): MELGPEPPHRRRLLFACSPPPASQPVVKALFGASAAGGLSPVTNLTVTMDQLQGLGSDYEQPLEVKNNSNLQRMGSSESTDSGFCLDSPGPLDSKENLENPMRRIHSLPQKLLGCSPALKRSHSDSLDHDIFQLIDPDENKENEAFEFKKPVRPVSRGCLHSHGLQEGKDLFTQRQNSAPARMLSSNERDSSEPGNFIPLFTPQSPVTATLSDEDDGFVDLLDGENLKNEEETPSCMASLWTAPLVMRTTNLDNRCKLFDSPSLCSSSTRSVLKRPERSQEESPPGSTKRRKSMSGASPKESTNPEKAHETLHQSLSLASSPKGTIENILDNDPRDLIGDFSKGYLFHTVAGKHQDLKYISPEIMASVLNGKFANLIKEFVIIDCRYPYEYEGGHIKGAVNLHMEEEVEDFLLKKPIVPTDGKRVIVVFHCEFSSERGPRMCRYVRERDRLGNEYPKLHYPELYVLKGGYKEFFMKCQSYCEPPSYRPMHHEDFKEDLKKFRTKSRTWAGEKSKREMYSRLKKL

Compound	IC50 (SBC-5) [µM]	IC50 [1] [µM]
CC(C)CCC[C@@H](C)[C@H]1CCC2/C(=C/C=C/C(=O)O)CCC[C@@]21C (some centres not stated)	42	94
COC(=O)/C=C1\CCC[C@@]2(C)C1CC[C@@H]2[C@H](C)CCCC(C)C (some centres not stated)	71	> 300
CC(C)CCC[C@@H](C)[C@H]1CCC2/C(=C/C(=O)O)CCC[C@@]21C (some centres not stated)	47	7.7
CC(C)CCC[C@@H](C)[C@H]1CCC2C(CC(=O)O)CCC[C@@]21C (some centres not stated)	> 100	32
COC(=O)CC1CCC[C@@]2(C)C1CC[C@@H]2[C@H](C)CCCC(C)C (some centres not stated)	70	> 300
CC(C)CCC[C@@H](C)[C@H]1CCC2C(CCCC(=O)O)CCC[C@@]21C (some centres not stated)	> 100	9
